Data on three compounds can be found in patent publication US20100137676A1, “N-ACETYLCYSTEINE AMIDE (NAC AMIDE) FOR TREATMENT OF OXIDATIVE STRESS ASSOCIATED WITH INFERTILITY” (priority 2005, published 2010).

In assay [1] the test system is porcine oocytes / embryos. Briefly: Embryo development to 2-cell and blastocyst stage after IVF in supplemented media (Example 1). Conditions: for % embryos reaching 2-cell stage of development / % embryos reaching blastocyst stage of development (of those in observed in the 2-cell stage): supplementation 1.0 mM, IVF; for % embryos reaching 2-cell stage of development: control 19; for % embryos reaching blastocyst stage of development (of those in observed in the 2-cell stage): culture to blastocyst stage, control 40. Type of assay: cell-based. Here is the method:
(§1) This Example describes an evaluation of the effects of NAC amide, glutathione (GSH) and N-acetylcysteine (NAC) supplementation to incubation and culture media during porcine oocyte maturation, fertilization and embryo culture on various measures of fertilization and embryo development, as well as on the intracellular concentration of GSH.
(§2) Experimental Design: Three trials were conducted, each trial utilizing 30 porcine oocytes per treatment group (90 total oocytes per each of four treatment groups). Oocytes were purchased from Trans Ova Genetics, Sioux City, Iowa. Treatment groups were: 1) Control (no supplemental anti-oxidants); 2) GSH supplementation (1.0 mM); 3) NAC supplementation (1.0 mM); and 4) NAC amide supplementation (1.0 mM).
(§3) In vitro Maturation: Oocytes were maturated for 20 to 24 hours in tissue culture medium 199 with Earle's salts, 0.01 U/mL LH and FSH, 10 ng/mL EGF, antibiotics, and 10% fetal calf serum under mineral oil (Specialty Media, Phillipsburg, N.J.) at 39° C. in an atmosphere of 5% CO2 and then for an additional 20 to 24 h without hormones.
(§4) In vitro Fertilization (IVF) of Oocytes: Cumulus cells by were removed by agitation with 0.1% hyaluronidase, washed and placed in Tris-fertilization medium (113.1 mM NaCl, 3 mM KCl, 7.5 mM CaCl2.2H2O, 20 mM Tris, 11 mM D (+)-glucose, 5 mM sodium pyruvate, 1 mg/mL BSA, 2 mM caffeine) with mineral oil overlay and freeze-thawed spermatozoa were added at a concentration of 2000 spermatozoa/oocyte. The gametes were incubated at 39° C. in an atmosphere of 5% CO2 for approximately 6 hours.
In vitro Culture: Putative zygotes were washed and incubated in NCSU-23 culture medium (108.73 mM NaCl, 4.78 mM KCl, 1.19 mM KH2PO4, 1.19 mM MgSO4.7H2O, 5.5 mM glucose, 1 mM glutamine, 7 mM taurine 5 mM hypotaurine, 25.07 mM NaHCO3, 1.7 mM CaCl2.2H2O, 75 μg/mL Penicillin G, 50 μg/mL Streptomycin, 4 mg/mL BSA, pH 7.4) with mineral oil overlay at 39° C. in an atmosphere of 5% CO2 for 48 hours. After 48 hours, embryos that had undergone the first cell division were placed in fresh NCSU 23 culture media in the same manner as described above until blastocyst formation, 144 hours post-IVF.
The remaining zygotes were cultured through the blastocyst stage of development ([…]) in their respective media and their development and viability progress was recorded (Table 2). NAC amide supplementation of the culture medium enhanced the development of zygotes to the 2-cell stage and further aided the subsequent final percentage of those embryos reaching the 2-cell stage that continued development onto the blastocyst stage (the endpoint of in vitro analysis).

Another assay relates to porcine oocytes. Put plainly: Glutathione assay: intracellular GSH concentration per oocyte after supplementation of maturation medium. Type of assay: cell-based. Conditions: supplementation 1.0 mM; for GSH concentration/oocyte: porcine oocytes, control 3.19. Here is the method: as §1, §2, §3
Glutathione Assay: Oocytes were washed in PBS, frozen, and ruptured using a blunt glass rod in phosphoric acid. The assay was performed as described previously (B. D. Whitaker and J. W. Knight, 2004, Theriogenology, 62:311-322) and the amount of GSH was determined using a standard curve of concentration GSH versus rate of change in absorbency.

The subject of the next assay is porcine putative zygotes. Put plainly: In vitro fertilization parameter evaluation by nuclear staining of putative zygotes. Type of assay: cell-based. The conditions noted are these: 12 hours after IVF; n=4 zygotes per group; preliminary, subjective. As for the experimental part: as §2, §4
In vitro Fertilization Parameter Evaluation: Fertilization was analyzed 12 hours after IVF by fixing the oocytes on a microscope slide with 25% (v:v) acetic acid in ethanol at room temperature for 48 hours. Oocytes were stained with 1% orcein in 45% (v:v) acetic acid and examined using a phase-contrast microscope at 400× magnification.
Fertilization parameters were subjectively examined by nuclear staining samples (n=4) of putative zygotes from each of the treatment groups 12 hours after IVF was complete (Illustration 1, * indicates pronucleus). In the preliminary analysis, only a small number of zygotes were subjected to staining, since the intent of the studies described herein was to assess the number of zygotes that continued development to the 2-cell and blastocyst stages. This analysis was simply to see if any obvious anomalies were occurring.

Assay [2] relates to mammalian red blood cells (RBCs). The conditions noted are these: cited from earlier work.
For assay [3] the following is noted: cell-free system; cited from earlier work.
Assay [4] concerns porcine oocytes / embryos. Briefly: Embryo development after intracytoplasmic sperm injection (ICSI) with NAC amide supplementation (Example 4). Type of assay: cell-based. The conditions noted are these: of 24 oocytes. The source says: (§5) This Example investigates the effects of NAC amide supplementation to culture media during porcine oocyte maturation, fertilization, and embryo culture on intracellular concentrations of GSH after oocyte maturation, IVF parameters, success of intracytoplasmic sperm injection (ICSI), and embryo development following ICSI and pronuclear microinjection.
(§6) All chemicals, unless otherwise specified, were obtained from Sigma Chemical Company (St. Louis, Mo.) and were of embryo grade quality. Dr. Glenn Goldstein and associates provided the NAC amide. Oocytes (BoMed, Madison, Wis.) were maturated for 20 to 24 h in tissue culture medium 199 supplemented with Earle's salts, 0.01 U/mL LH and FSH, antibiotics, and 10% fetal calf serum under mineral oil (Specialty Media, Phillipsburg, N.J.) at 39° C. in an atmosphere of 5% CO2 and then for an additional 20 to 24 h without hormones.
Cumulus cells were removed by agitation with 0.1% hyaluronidase, washed and placed in microdrops of NCSU-23 culture medium (108.73 mM NaCl, 4.78 mM KCl, 1.19 mM KH2PO4, 1.19 mM MgSO4.7H2O, 5.5 mM glucose, 1 mM glutamine, 7 mM taurine 5 mM hypotaurine, 25.07 mM NaHCO3, 1.7 mM CaCl2.2H2O, 75 μg/mL Penicillin G, 50 μg/mL Streptomycin, 4 mg/mL BSA, pH 7.4) with mineral oil overlay at 39° C. after centrifugation at 15000×g. Frozen-thawed sperm were then placed in an adjacent microdrop. […]

The test system of assay [5] is porcine oocytes / embryos. Briefly: Embryo development after IVF with NAC amide supplementation (Example 4). Type of assay: cell-based. The conditions noted are these: of 70 oocytes.
Description: as §5, §6
Cumulus cells were removed by agitation with 0.1% hyaluronidase, washed and placed in Tris-fertilization medium (113.1 mM NaCl, 3 mM KCl, 7.5 mM CaCl2.2H2O, 20 mM Tris, 11 mM D(+)-glucose, 5 mM sodium pyruvate, 1 mg/mL BSA, 2 mM caffeine) with mineral oil overlay and frozen-thawed spermatozoa were added at a concentration of 2000 spermatozoa/oocyte. The gametes were incubated at 39° C. in an atmosphere of 5% CO2 for approximately 6 h. […]

Consider `N[C@@H](CCC(=O)N[C@@H](CS)C(=O)NCC(=O)O)C(=O)O` [GSH, glutathione], for which, in assay [1], the “% embryos reaching 2-cell stage of development” value (from here on “% embryos reaching 2-cell stage”) is given as 25% and the “% embryos reaching blastocyst stage of development (of those in observed in the 2-cell stage)” value (from here on “% embryos reaching blastocyst stage”) was 40%. In addition, the “GSH concentration/oocyte” value in the assay with porcine oocytes was 4.18 pmol. Moreover, the “changes on fertilization events (nuclear staining)” value (“changes on fertilization events” below) in the assay on porcine putative zygotes is reported as “did not have any noticeable changes”.

For the compound `CC(=O)N[C@@H](CS)C(=O)O` [NAC, N-acetylcysteine], in assay [1], the “% embryos reaching 2-cell stage” value is on record as 30% and the “% embryos reaching blastocyst stage” value amounted to 55%. The “intracellular GSH concentration, statistical comparison with control” value in the assay on porcine oocytes (P<0.05) is listed as “significantly (P<0.05) higher than control”. Besides, in the assay on porcine oocytes, the “GSH concentration/oocyte” value is 6.00 pmol. In the assay on porcine putative zygotes, the “changes on fertilization events” value is given as “did not have any noticeable changes”.

Consider N-acetylcysteine amide [NAC amide], for which, in assay [2] (RBCs), the hemoglobin oxidation entry was “protected hemoglobin from oxidation” and the “tert.-butylhydroxyperoxide (BuOOH)-induced intracellular oxidation” value is “inhibit”. The “restoration of thiol-depleted RBCs” value in assay [2] (externally applied, compared with NAC) was “significantly greater than that found using NAC”. Moreover, the “% of embryos developing to the 2-cell and blastocyst stages, statistical comparison” value in assay [1] (2-cell P<0.05, blastocyst P<0.10) is on record as “significantly greater % of embryos”. In assay [1], the “% embryos reaching 2-cell stage” value was 45% and the “% embryos reaching blastocyst stage” value worked out at 85%. Moreover, in assay [3], the “reaction with oxidized glutathione (GSSG)” value is listed as “react with oxidized glutathione (GSSG) to generate reduced glutathione (GSH)”. Also, the “# of Embryos reaching blastocyst stage of development” value in assay [4] (control 2 of 25) is reported as 5. In assay [4] (control 5 of 25), the “# of Embryos reaching 2-cell stage of development” value is recorded as 12. For the same compound, the “# of Embryos reaching blastocyst stage of development” value in assay [5] (control 6 of 67) was found to be 12. In assay [5] (control 10 of 67), the “# of Embryos reaching 2-cell stage of development” value is 22. Besides, in the assay with porcine oocytes, the “greater increase in intracellular GSH compared with supplementation of GSH per se” value was determined as 40%, the “greater intracellular GSH concentration compared with NAC supplementation” value is on record as 15%, the “increase in intracellular GSH concentration compared with control” value turned out to be 2.2 fold and the “GSH concentration/oocyte” value is reported as 7.03 pmol. In the assay on porcine oocytes (P<0.05), the “intracellular GSH concentration, statistical comparison with GSH” value was “significantly (P<0.05) higher than GSH” and the “intracellular GSH concentration, statistical comparison with control” value is given as “significantly (P<0.05) higher than control”. For the same compound, the “changes on fertilization events” value with porcine putative zygotes was “did not have any noticeable changes”.
